For one compound, Kd results are on record in BindingDB's records for patent US20250325529 (Celloram, 2025).

Holding throughout (assay): Binding assays for FABP3, FABP4, FABP5 and FABP7
In test [1] the target is Fatty acid-binding protein, heart (Homo sapiens, UniProt P05413). As for the experimental part: (§1) Binding assays for FABP3, FABP4, FABP5 and FABP7 were carried out by fluorescence titrations. His-tagged FABPs were bacterially expressed in E. coli, purified using Ni Sepharose beads, and the equilibrium dissociation constants (Kd) that characterize their interactions with different inhibitor compounds were measured by fluorescence competition assays. The method entails two steps as described in e.g., Lin, Q. et al., “Ligand selectivity of the peroxisome proliferator-activated receptor alpha,” Biochemistry 38, 185-190, doi:10.1021/bi9816094 [pii](1999). In the first step, Kd for the association of the protein with the fluorescent fatty acid probe ANS was measured. Protein (2 μM) was titrated with ANS from a concentrated solution in DMSO. Ligand binding was monitored by following the increase in the fluorescence of the ligand upon binding to the protein, and Kd for the association of ANS with the each FABP was computed from titration curves as described in e.g., Norris, A. W. & Li, E., “Fluorometric titration of the CRABPs,” Methods Mol Biol 89, 123-139 (1998)). In the second step, Kds for binding of non-fluorescent ligands were measured by monitoring their ability to displace ANS in the binding pocket of the protein.
Sequence of Fatty acid-binding protein, heart (P05413 whole entry): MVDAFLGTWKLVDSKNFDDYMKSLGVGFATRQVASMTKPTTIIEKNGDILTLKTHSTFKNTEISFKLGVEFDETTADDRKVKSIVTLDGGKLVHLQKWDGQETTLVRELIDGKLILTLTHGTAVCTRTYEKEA

Test [2] addresses Fatty acid-binding protein 5 (Homo sapiens, UniProt Q01469). The protocol:
as §1

The target in test [3] is Fatty acid-binding protein, brain (FABP7) (Homo sapiens, UniProt O15540). As for the experimental part: as §1
Sequence of Fatty acid-binding protein, brain (FABP7) (O15540 whole entry): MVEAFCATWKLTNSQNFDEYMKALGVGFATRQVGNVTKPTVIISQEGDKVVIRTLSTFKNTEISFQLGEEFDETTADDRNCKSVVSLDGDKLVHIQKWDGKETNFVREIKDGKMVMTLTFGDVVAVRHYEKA
For test [4], the target named is Fatty acid-binding protein, adipocyte (Homo sapiens, UniProt P15090). As for the experimental part:
as §1

What is called Kd is the concentration at which binding is half-saturated.

Sequence of Fatty acid-binding protein 5 (Q01469 whole entry): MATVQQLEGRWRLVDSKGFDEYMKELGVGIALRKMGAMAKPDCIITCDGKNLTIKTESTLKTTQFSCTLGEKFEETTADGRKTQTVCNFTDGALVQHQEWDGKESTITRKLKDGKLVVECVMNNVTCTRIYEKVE
Sequence of Fatty acid-binding protein, adipocyte (P15090 whole entry): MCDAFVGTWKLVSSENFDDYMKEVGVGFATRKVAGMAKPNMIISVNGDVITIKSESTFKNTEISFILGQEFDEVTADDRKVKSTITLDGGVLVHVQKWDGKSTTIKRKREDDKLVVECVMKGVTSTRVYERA

`CC(C)Oc1nc(NC(=O)CC(C)(C)CC(=O)O)c(Cl)cc1Cl` [US20250325529, ID PD154]: the Kd in test [1] was 60.8 nM; in test [2], 11 nM; in test [3], 43 nM; in test [4] it was 14 nM.
